Data: patent US20230391786A1, “cGAS INHIBITORS” (Eli Lilly and Company, priority 2022, published 2023)
Where a name gives a salt, the structure may show the parent alone. Read-outs that look alike come from different tables or passages of the source.

Columns and labels:
recombinant human cGAS = recombinant human cGAS (Homo sapiens (Human), UniProt Q8N884); assay: In vitro inhibition assay of cGAS activity (cGAMP production, RapidFire mass spectrometry); type: biochemical; conditions: 10 nM recombinant human cGAS, 60 nM 75-bp dsDNA, ATP, GTP, room temperature 3 hours, read-out: IC50 (μM), In vitro inhibition assay for Compounds 95-348
recombinant human cGAS, sequence (Q8N884 whole entry): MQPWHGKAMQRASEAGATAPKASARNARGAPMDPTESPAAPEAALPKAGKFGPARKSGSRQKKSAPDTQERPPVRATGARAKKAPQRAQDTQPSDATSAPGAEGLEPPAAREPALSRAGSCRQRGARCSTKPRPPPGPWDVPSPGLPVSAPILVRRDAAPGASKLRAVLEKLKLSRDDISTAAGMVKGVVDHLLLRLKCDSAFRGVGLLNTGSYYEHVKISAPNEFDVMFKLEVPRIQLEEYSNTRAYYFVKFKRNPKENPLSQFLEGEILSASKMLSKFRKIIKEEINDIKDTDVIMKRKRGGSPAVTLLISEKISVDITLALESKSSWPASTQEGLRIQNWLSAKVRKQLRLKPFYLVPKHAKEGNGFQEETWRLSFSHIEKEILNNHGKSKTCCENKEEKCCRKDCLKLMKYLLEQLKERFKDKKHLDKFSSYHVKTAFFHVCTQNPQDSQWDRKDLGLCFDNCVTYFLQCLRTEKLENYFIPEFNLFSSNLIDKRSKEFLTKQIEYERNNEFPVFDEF
Procedure, shortened: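 Full-length His6-tagged human cGAS (10 nM, E. coli-expressed) was incubated 3 h at room temperature with 60 nM 75-bp dsDNA, ATP, 50 μM GTP and compound at pH 7.5 with 5 mM MgCl2. cGAMP formation was measured by RapidFire mass spectrometry, and IC50 was taken from a 4-parameter logistic fit.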

[1] = test system: cGAS activity in THP1 cells (IFNb as marker); assay: Cellular assay to measure cGAS activity (IFNb production in PMA-differentiated THP1 cells stimulated by RDG-Adenovirus-GFP); type: cell-based, human; conditions: Homo sapiens
Procedure, shortened: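 PMA-differentiated THP1 cells were infected with RDG-Adenovirus-GFP at 1000 MOI for 4 h, then exposed overnight to test compounds. IFNb in the supernatant was quantified by AlphaLISA as a cGAS activity marker, and IC50 was fitted with a 4-parameter logistic equation.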

[2] = THP-1, THP1 cells, PMA differentiated, RDG-Adenovirus-GFP 1000 MOI, IFNb AlphaLISA, overnight incubation, read-out: IC50 (μM), Cellular assay for Compounds 95-348

IC50 (recombinant human cGAS) | IC50 [1, 2] | SMILES | IC50 ([1]; THP-1, read-out: IC50 (μM), Cellular assay for Compounds 95-348)
0.0474 µM | 4.63 µM | NC1(C(=O)N2CCn3c(c(-c4cn[nH]c4)c4ccc(Cl)c(Cl)c43)C2)CCOCC1 [Example 147, (4-Aminotetrahydro-2H-pyran-4-yl)(6,7-dichloro-10-(1H-pyrazol-4-yl)-3,4-dihydropyrazino[1,2-a]indol-2(1H)-yl)methanone] | 
0.052 µM | 1.54 µM | CCNc1cc(Cl)c(Cl)c2c1c(-c1cn[nH]c1)c1n2CCN(C(=O)CO)C1 [Example 148, 1-(6,7-Dichloro-9-(ethylamino)-10-(1H-pyrazol-4-yl)-3,4-dihydropyrazino[1,2-a]indol-2(1H)-yl)-2-hydroxyethan-1-one] | 
0.0142 µM | 1.4 µM | COc1cc2c(-c3cn[nH]c3)cn(-c3cn(CCO)nn3)c2cc1Cl [Example 152, 2-[4-[6-Chloro-5-methoxy-3-(1H-pyrazol-4-yl)indol-1-yl]triazol-1-yl]ethanol] | 
0.0405 µM | 0.464 µM | Clc1ccc2c(-c3cn[nH]c3)c(-c3nnco3)[nH]c2c1Cl [Example 156, 2-[6,7-Dichloro-3-(1H-pyrazol-4-yl)-1H-indol-2-yl]-1,3,4-oxadiazole] | 
0.0507 µM | 0.363 µM | Cc1nnc(-c2[nH]c3c(Cl)c(Cl)ccc3c2-c2cn[nH]c2)s1 [Example 158, 2-(6,7-Dichloro-3-(1H-pyrazol-4-yl)-1H-indol-2-yl)-5-methyl-1,3,4-thiadiazole] | 
0.019 µM | > 10 µM | Sc1nnc(-c2[nH]c3c(Cl)c(Cl)ccc3c2-c2cn[nH]c2)[nH]1 [Example 159, 5-[6,7-Dichloro-3-(1H-pyrazol-4-yl)-1H-indol-2-yl]-4H-1,2,4-triazole-3-thiol] | 
0.0152 µM | 0.761 µM | O=C(CO)NCc1[nH]c2c(Cl)c(Cl)ccc2c1-c1cn[nH]c1 [Example 162, N-[[6,7-Dichloro-3-(1H-pyrazol-4-yl)-1H-indol-2-yl]methyl]-2-hydroxy-acetamide] | 
0.0543 µM | 1.34 µM | NC(=O)NCc1[nH]c2c(Cl)c(Cl)ccc2c1-c1cn[nH]c1 [Example 164, [6,7-Dichloro-3-(1H-pyrazol-4-yl)-1H-indol-2-yl]methylurea] | 
0.0672 µM | 1.86 µM | C[C@@H](O)C(=O)NCc1[nH]c2c(Cl)c(Cl)ccc2c1-c1cn[nH]c1 [Example 167, (R)—N-((6,7-Dichloro-3-(1H-pyrazol-4-yl)-1H-indol-2-yl)methyl)-2-hydroxypropanamide] | 
0.0341 µM | 0.651 µM | O=C(Nc1cc(Cl)c(F)c2c1c(-c1cn[nH]c1)cn2-c1cn(CCO)nn1)C(F)F [Example 172, N-[6-Chloro-7-fluoro-1-[1-(2-hydroxyethyl)triazol-4-yl]-3-(1H-pyrazol-4-yl)indol-4-yl]-2,2-difluoro-acetamide] | 
0.0145 µM | 0.466 µM | OCCCNc1cc(Cl)c(F)c2c1c(-c1cn[nH]c1)cn2-c1cn(CCO)nn1 [Example 173, 3-[[6-Chloro-7-fluoro-1-[1-(2-hydroxyethyl)triazol-4-yl]-3-(1H-pyrazol-4-yl)indol-4-yl]amino]propan-1-ol] | 

Continued, molecule first:

SMILES | IC50 (recombinant human cGAS) | IC50 [1, 2] | IC50 ([1]; THP-1, read-out: IC50 (μM), Cellular assay for Compounds 95-348)
CCNc1cc(Cl)c(Cl)c2c1c(-c1cn[nH]c1)c1n2CCN(C)C1=O [Example 149, 6,7-Dichloro-9-(ethylamino)-2-methyl-10-(1H-pyrazol-4-yl)-3,4-dihydropyrazino[1,2-a]indol-1-one hydrochloride] | 0.0442 µM | 6.05 µM | 
CCNc1cc(Cl)c(Cl)c2[nH]cc(-c3cn[nH]c3)c12 [Example 150, 6,7-Dichloro-N-ethyl-3-(1H-pyrazol-4-yl)-1H-indol-4-amine] | 0.0303 µM | 1.92 µM | 
CC(=O)N1CCOC(CCN2CCn3c(c(-c4cn[nH]c4)c4c(OCC#N)cc(Cl)c(Cl)c43)C2=O)C1 (stereo not drawn) [Example 151, 2-[[2-[2-(4-Acetylmorpholin-2-yl)ethyl]-6,7-dichloro-1-oxo-10-(1H-pyrazol-4-yl)-3,4-dihydropyrazino[1,2-a]indol-9-yl]oxy]acetonitrile] | 0.0349 µM | > 10 µM | 
CC(=O)NCc1[nH]c2c(Cl)c(Cl)cc(OCC#N)c2c1-c1cn[nH]c1 [Example 153, N-((6,7-Dichloro-4-(cyanomethoxy)-3-(1H-pyrazol-4-yl)-1H-indol-2-yl)methyl)acetamide] | 0.00511 µM | 0.807 µM | 
O=C(CO)NC1Cc2c(-c3cn[nH]c3)c3ccc(Cl)c(Cl)c3n2C1 (stereo not drawn) [Example 154, N-(5,6-Dichloro-9-(1H-pyrazol-4-yl)-2,3-dihydro-1H-pyrrolo[1,2-a]indol-2-yl)-2-hydroxyacetamide] | 0.026 µM | 2.41 µM | 
CC(=O)NC1Cc2c(-c3cn[nH]c3)c3ccc(Cl)c(Cl)c3n2C1 (stereo not drawn) [Example 155, N-(5,6-Dichloro-9-(1H-pyrazol-4-yl)-2,3-dihydro-1H-pyrrolo[1,2-a]indol-2-yl)acetamide] | 0.0273 µM | 7.68 µM | 
OCc1nnc(-c2[nH]c3c(Cl)c(Cl)ccc3c2-c2cn[nH]c2)o1 [Example 157, (5-(6,7-Dichloro-3-(1H-pyrazol-4-yl)-1H-indol-2-yl)-1,3,4-oxadiazol-2-yl)methanol] | 0.0281 µM | 0.331 µM | 
Clc1ccc2c(-c3cn[nH]c3)c(-c3nnc(C4CC4)o3)[nH]c2c1Cl [Example 160, 2-Cyclopropyl-5-(6,7-dichloro-3-(1H-pyrazol-4-yl)-1H-indol-2-yl)-1,3,4-oxadiazole] | 0.0787 µM | 0.536 µM | 
COc1cc(Cl)cc2c1c(-c1cn[nH]c1)cn2-c1cn(CCO)nn1 [Example 161, 2-[4-[6-Chloro-4-methoxy-3-(1H-pyrazol-4-yl)indol-1-yl]triazol-1-yl]ethanol] | 0.0616 µM | 1.01 µM | 
CCC(=O)NCc1[nH]c2c(Cl)c(Cl)ccc2c1-c1cn[nH]c1 [Example 163, N-[[6,7-Dichloro-3-(1H-pyrazol-4-yl)-1H-indol-2-yl]methyl]propanamide] | 0.076 µM | 2.09 µM | 
O=C(NCc1[nH]c2c(Cl)c(Cl)ccc2c1-c1cn[nH]c1)c1nnco1 [Example 165, N-[[6,7-Dichloro-3-(1H-pyrazol-4-yl)-1H-indol-2-yl]methyl]-1,3,4-oxadiazole-2-carboxamide] | 0.0894 µM | 1.32 µM | 
Cn1cc(-n2c(CO)c(-c3cn[nH]c3)c3ccc(Cl)c(Cl)c32)nn1 [Example 166, [6,7-Dichloro-1-(1-methyltriazol-4-yl)-3-(1H-pyrazol-4-yl)indol-2-yl]methanol] | 0.0931 µM | 2.83 µM | 
C[C@H](O)C(=O)NCc1[nH]c2c(Cl)c(Cl)ccc2c1-c1cn[nH]c1 [Example 168, (S)—N-((6,7-Dichloro-3-(1H-pyrazol-4-yl)-1H-indol-2-yl)methyl)-2-hydroxypropanamide] | 0.0463 µM | 1 µM | 
O=C(Nc1cc(Cl)c(Cl)c2[nH]cc(-c3cn[nH]c3)c12)C(F)(F)CO [Example 169, N-(6,7-Dichloro-3-(1H-pyrazol-4-yl)-1H-indol-4-yl)-2,2-difluoro-3-hydroxypropanamide] | 0.0138 µM | 0.656 µM | 
O=C(CF)Nc1cc(Cl)c(Cl)c2[nH]cc(-c3cn[nH]c3)c12 [Example 170, N-(6,7-Dichloro-3-(1H-pyrazol-4-yl)-1H-indol-4-yl)-2-fluoroacetamide] | 0.00567 µM |  | 0.129 µM
O=C(Nc1cc(Cl)c(Cl)c2[nH]cc(-c3cn[nH]c3)c12)C(F)F [Example 171, N-[6,7-Dichloro-3-(1H-pyrazol-4-yl)-1H-indol-4-yl]-2,2-difluoro-acetamide] | 0.00356 µM | 0.0689 µM | 
